Activity calls are given as the source filed them. No cut-off for these calls is given here.
Tests used:
[1] = molecular target: T1, Transcriptional activator protein LasR (Pseudomonas aeruginosa (strain ATCC 15692 / PAO1 / 1C / PRS 101 / LMG12228)) (UniProt P25084); test: Antagonist activity at LasR in Pseudomonas aeruginosa PAO1 assessed as inhibition of biofilm formation at 0.3 to 333 uM after 20 hrs by crystal violet staining assay
T1 sequence (whole entry): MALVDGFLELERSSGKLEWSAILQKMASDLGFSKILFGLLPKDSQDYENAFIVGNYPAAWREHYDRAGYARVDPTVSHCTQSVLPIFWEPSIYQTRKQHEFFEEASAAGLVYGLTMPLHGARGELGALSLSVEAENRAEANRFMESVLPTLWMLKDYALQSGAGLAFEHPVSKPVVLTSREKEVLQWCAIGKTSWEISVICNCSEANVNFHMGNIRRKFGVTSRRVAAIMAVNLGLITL

[2] = molecular target: T1, Transcriptional activator protein LasR (Pseudomonas aeruginosa (strain ATCC 15692 / PAO1 / 1C / PRS 101 / LMG12228)); test: Antagonist activity at LasR in Escherichia coli DH5a harboring reporter plasmid lasI-lacZ (pSC11) pJN105L plasmid assessed as inhibition of 3-oxo-C12-HSL induced protein activation by Miller assay method; details: Escherichia coli DH5[alpha]
[3] = tested on: Pseudomonas aeruginosa; test: Antibacterial activity against Pseudomonas aeruginosa PAO1 assessed as inhibition of pyocyanin production at 100 uM after 20 hrs; assay type: functional; details: PAO1, 20 h
[4] = molecular target: T1, Transcriptional activator protein LasR (Pseudomonas aeruginosa (strain ATCC 15692 / PAO1 / 1C / PRS 101 / LMG12228)); test: Binding affinity to LasR in Pseudomonas aeruginosa PAO1 at 50 to 100 uM after 24 hrs by gel electrophoresis
[5] = molecular target: T1, Transcriptional activator protein LasR (Pseudomonas aeruginosa (strain ATCC 15692 / PAO1 / 1C / PRS 101 / LMG12228)); details: JP2, 200 uM
Description: Agonist activity at LasR in lasI-rhlI double mutant Pseudomonas aeruginosa JP2 harboring lasI promoter coupled to the luxCDABE box assessed as reduction in luminescence measured at 200 uM after 5 hrs

[6] = molecular target: T2, HTH-type quorum-sensing regulator RhlR (Pseudomonas aeruginosa (strain ATCC 15692 / PAO1 / 1C / PRS 101 / LMG12228)) (UniProt P54292); test: Antagonist activity at RhlR in lasI-rhlI double mutant Pseudomonas aeruginosa PAO-JP2 harboring lasI promoter coupled to the luxCDABE box assessed as reduction in C4-HSL induced protein measured at 25 to 200 uM after 5 hrs
T2 sequence (whole entry): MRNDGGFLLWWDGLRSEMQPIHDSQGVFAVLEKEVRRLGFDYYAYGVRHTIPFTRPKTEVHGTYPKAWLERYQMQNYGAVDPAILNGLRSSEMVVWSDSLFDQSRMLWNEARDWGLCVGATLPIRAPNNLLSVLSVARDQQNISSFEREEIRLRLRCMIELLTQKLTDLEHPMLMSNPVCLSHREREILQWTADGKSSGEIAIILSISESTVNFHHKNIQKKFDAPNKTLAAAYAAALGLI

[7] = tested on: Pseudomonas aeruginosa; test: Growth inhibition of lasI-rhlI double mutant Pseudomonas aeruginosa PAO-JP2 harboring lasI promoter coupled to the luxCDABE box measured at >100 uM after 5 hrs; assay type: organism-based; details: in vivo
[8] = molecular target: T1, Transcriptional activator protein LasR (Pseudomonas aeruginosa (strain ATCC 15692 / PAO1 / 1C / PRS 101 / LMG12228)); details: 12 uM
Description: Antagonist activity at LasR in Pseudomonas aeruginosa PAO1 assessed as inhibition of biofilm formation at 12 uM after 20 hrs by crystal violet staining assay

[9] = molecular target: T1, Transcriptional activator protein LasR (Pseudomonas aeruginosa (strain ATCC 15692 / PAO1 / 1C / PRS 101 / LMG12228)); details: 200 uM
Description: Inhibition of LasR activation in Pseudomonas aeruginosa PAO1 harboring lasI promoter coupled to the luxCDABE luminescence system assessed as reduction in luminescence measured at 200 uM after 5 hrs

[10] = molecular target: T1, Transcriptional activator protein LasR (Pseudomonas aeruginosa (strain ATCC 15692 / PAO1 / 1C / PRS 101 / LMG12228)); details: JP2, 50 uM
Description: Antagonist activity at LasR in lasI-rhlI double mutant Pseudomonas aeruginosa JP2 harboring lasI promoter coupled to the luxCDABE box assessed as reduction in C4-HSL induced luminescence measured at 50 uM after 5 hrs

Row | SMILES | inhibition [1] | inhibition [2] | inhibition at 100 µM [3] | Activity [4] | inhibition [5] | inhibition [6] | Activity [7] | inhibition [8] | inhibition [9] | inhibition [10]
1 | O=C1C=C(Br)/C(=C/Br)O1 | Active | – | – | – | – | – | – | – | – | –
2 | C[S+]([O-])CCCCN=C=S (stereo not given) [SULFORAPHANE] | – | Dose-dependent effect | > 70% | Active | inactive | Active | Non-toxic | Active | Active | Active

Reference: ChEMBL document CHEMBL3217408 (Medchemcomm, 2013)
